Test results: US20090163474A1, “FXR Agonists for the Treatment of Nonalcoholic Fatty Liver and Cholesterol Gallstone Diseases” (Wyeth, priority 2007, published 2009)
Read-outs that look alike come from different tables or passages of the source.

What was measured:
[1] = tested on: Wildtype mice challenged with LPS; experiment: LPS-induced liver acute phase response, wildtype mice; assay type: in vivo; conditions: 30 mg/kg for 4 days; 2.5 micrograms LPS, 4 hours; P<0.01
Description: (§1) Wildtype and FXR deficient mice were treated with Compound A (30 mg/kg) or vehicle for 4 days. On day 4, mice were challenged with 2.5 micrograms of lipopolysaccharide (LPS) to induce an acute phase response. After 4 hours, the mice were euthanized and their livers were harvested for analysis of expression of various factors. […] Compound A attenuated the LPS-induced murine liver acute phase response. […] (*P<0.01, WT/LPS/V vs. WT/LPS/Compound A).

[2] = tested on: C57BL/6 mice fed a methionine/choline deficient (MCD) diet; experiment: MCD diet fed mice: serum, liver gene expression and liver histology; assay type: in vivo
Description: Male C57BL/6 mice were fed a standard chow diet or a methionine/choline deficient (MCD) diet (MCD diet; TD 90262, Harlan Teklad). MCD diet fed mice develop fibrosis and NAFLD including steatosis and NASH due to impaired mitochondrial β-oxidation and reduced hepatic triglyceride secretion.
Mice were administered vehicle or 30 mg/kg Compound A orally once a day for 4 weeks. Three hours after the final treatment, mice were euthanized, and blood and liver were collected for analyses.
FIGS. 11A and 11B show the expression levels of VCAM-1 and MCP-1, respectively. Real-time RT PCR analysis of liver RNA was performed. Expression levels were normalized to GAPDH, and the mean level of expression of each gene in vehicle treated mice fed a standard chow diet was defined as 1.0. 7 mice were tested in each group. Data are presented as the mean±SE.
FIGS. 13, 14, and 15 show representative liver sections from mice fed a standard chow diet, vehicle treated mice fed a MCD diet, and Compound A (30 mg/kg orally once a day) treated mice fed a MCD diet for 4 weeks.
Male C57BL/6 mice were fed a standard chow diet or a MCD diet and treated with either vehicle or 30 mg/kg Compound A orally once a day for 4 weeks. Three hours after the final treatment, mice were euthanized and liver expression of CYP2E1, a reactive oxygen species (ROS) generating microsomal enzyme, was analyzed.

[3] = tested on: Wildtype mice challenged with CCl4; experiment: CCl4 induced acute liver injury and fibrosis in mice; assay type: in vivo; conditions: 30 mg/kg for 4 days, 30 μl/kg CCl4 on day 3, 24 hours
Description: Wildtype mice were treated with 30 mg/kg Compound A or vehicle for 4 days. On day 3, mice were challenged with 30 μl/kg of carbon tetrachloride (CCl4) to induce acute liver injury. After 24 hours, mice were euthanized and their livers were harvested for analysis.

[4] = tested on: mice fed a Paigen diet; experiment: Gallbladder bile lipid composition, Paigen diet with treatment; assay type: in vivo
Description: Disrupted cholesterol, phospholipid, and bile salt homeostasis contributes to the formation of gallstones. Gallbladder bile lipid composition was quantitated from mice treated as follows. A group of mice (CHOW) was fed a standard chow diet. Another group of mice was fed a Paigen diet and administered vehicle (Paigen/Vehicle) or 30 mg/kg Compound A (Paigen/Compound A) orally once a day for 4 weeks. To preform gallstones, mice were fed initially a Paigen diet for 4 weeks and subsequently fed a standard chow diet and administered vehicle (Preformed/Vehicle) or 30 mg/kg Compound A (Preformed/Compound A) orally once a day for 4 weeks. […] Data are presented as the mean±SE.

[5] = tested on: Hep3B cells; experiment: IL-6 induced CRP secretion in Hep3B cells; assay type: cell-based, Human; conditions: for IC50: Homo sapiens, Hep3B, read-out: IC50 of inhibitory effect on CRP secretion
Description: Human hepatoma cells, Hep3B secrete the acute phase protein, C-reactive protein (CRP) upon IL-6 treatment. Cells were cotreated with Compound A to determine if Compound A could decrease IL-6 induced CRP secretion.
FIGS. 24A, 24B, and 24C show the levels of CRP secretion (pg/ml) in Hep3B cells after stimulation with IL-6 (10 ng/ml), or IL-6 (50 ng/ml), or IL-6 (10 ng/ml & IL-1β 20 ng/ml), and treated with vehicle (DMSO) or Compound A (5 μM). […] (*P<0.001, Hep3B/DMSO vs. Hep3B/Compound A).

[6] = tested on: wildtype (WT) mice fed a MCD diet; experiment: MCD diet, wildtype mice (WT vs FXRKO study); assay type: in vivo; conditions: 30 mg/kg orally once a day for 4 weeks
Description: (§2) Mice were fed a standard chow diet or a MCD diet and treated with either vehicle or 30 mg/kg Compound A orally once a day for 4 weeks.

[7] = tested on: FXR deficient (FXRKO) mice fed a MCD diet; experiment: MCD diet, FXR deficient mice (WT vs FXRKO study); assay type: in vivo; conditions: 30 mg/kg orally once a day for 4 weeks
Description: as §2

[8] = tested on: FXRKO mice challenged with LPS; experiment: LPS-induced liver acute phase response, FXR deficient mice; assay type: in vivo; conditions: 30 mg/kg for 4 days; LPS treated FXRKO mice
Description: as §1

[9] = tested on: C57BL/6 mice with preformed gallstones; experiment: Gallstone dissolution in mice with preformed gallstones; assay type: in vivo; conditions: Paigen diet 4 weeks, then 30 mg/kg orally once a day on chow diet for 4 weeks
Description: To study gallstone dissolution, gallbladders were harvested from mice treated as follows. C57BL/6 mice were fed a Paigen diet for 4 weeks to initiate gallstone formation. Subsequently these mice were administered vehicle or 30 mg/kg Compound A orally once a day and fed a standard chow diet for 4 weeks to study the effect of Compound A on preformed gallstones.

[10] = 30 mg/kg orally once a day for 4 weeks, MCD diet
[11] = 30 mg/kg orally once a day for 4 weeks, MCD diet, RT PCR, p<0.001
[12] = 30 mg/kg orally once a day for 4 weeks, p<0.001
[13] = 30 mg/kg orally once a day, MCD diet for 4 weeks
[14] = Paigen/Compound A vs Paigen/Vehicle
[15] = Paigen/Compound A, 30 mg/kg orally once a day for 4 weeks, mean±SE

CC(C)OC(=O)C1=CN(C(=O)c2ccc(F)c(F)c2)CC(C)(C)c2c1[nH]c1ccccc21 [Compound A, isopropyl 3-(3,4-difluorobenzoyl)-1,1-dimethyl-1,2,3,6-tetrahydroazepino[4,5-b]indole-5-carboxylate]
reduction of liver SAA-3 levels vs vehicle [1]: 35% | reduction of liver SAP levels vs vehicle [1]: 40% | reduction of liver VCAM-1 levels vs vehicle [1]: 40% | liver FXR gene expression level [2, 10]: did not normalize | liver FXR target gene expression (SHP, BSEP) [2, 10]: normalized | liver MCP-1 expression [2, 11]: significantly inhibited | liver VCAM-1 expression [2, 11]: significantly inhibited | serum aspartate aminotransferase (AST) activity level ([2]; 30 mg/kg orally once a day for 4 weeks, MCD diet, mean±SE, vehicle 491±38.9 U/L, p<0.0001): 268±77 U/L | serum mKC level vs vehicle ([2]; 30 mg/kg orally once a day for 4 weeks, MCD diet, p<0.05): reduced | liver CYP2E1 expression levels ([2]; 30 mg/kg orally once a day for 4 weeks, chow or MCD diet (independent of MCD diet), p<0.001): significant inhibition | liver MMP-9 expression level (MCD diet induction) [2, 12]: inhibition of MCD diet induction | liver MMP-14 expression level (MCD diet induction) [2, 12]: inhibition of MCD diet induction | liver TIMP-1 expression level (MCD diet induction) [2, 12]: inhibition of MCD diet induction | inflammatory cell infiltration and fibrosis in liver (Trichrome staining) [2, 13]: more severe in the livers of vehicle treated compared to Compound A treated mice | inflammatory cell infiltration and portal inflammation in liver (H&E staining) [2, 13]: more severe in the livers of vehicle treated compared to Compound A treated mice | liver function, inflammation and fibrosis (histological analyses of liver sections) [2, 13]: preserved liver function, and reduced liver inflammation and fibrosis | neutral lipid accumulation in the liver (Oil Red O staining) [2, 13]: no effect | decrease of serum ALT levels vs vehicle ([3]; P<0.01): 60% | decrease of serum AST levels vs vehicle ([3]; P<0.01): 75% | decrease of liver TGF-β levels (TGF-β1 mRNA) vs vehicle ([3]; normalized to GAPDH, P<0.01): 30% | decrease of liver a-SMA levels (mRNA) vs vehicle ([3]; normalized to GAPDH, P<0.01): 40% | decrease of liver MMP-9 levels (mRNA) vs vehicle ([3]; normalized to GAPDH, P<0.04): 75% | decrease of liver TIMP-1 levels (mRNA) vs vehicle ([3]; normalized to GAPDH, P<0.04): 60% | bile cholesterol level increase induced by the Paigen diet, vs vehicle [4, 14]: attenuated the increases | bile phospholipid level increase induced by the Paigen diet, vs vehicle [4, 14]: attenuated the increases | BS (bile salt) in gallbladder bile [4, 15]: 110.42 ± 24.79 mM | CE (cholesterol) in gallbladder bile [4, 15]: 7.70 ± 0.28 mM | PL (phospholipids) in gallbladder bile [4, 15]: 20.19 ± 1.00 mM | IL-6 induced CRP secretion ([5]; Compound A 5 μM, IL-6 10 ng/ml, IL-6 50 ng/ml, or IL-6 10 ng/ml & IL-1β 20 ng/ml, P<0.001 vs DMSO): inhibited | IC50 ([5]; 10 ng/ml of IL-6): 224 nM | IC50 ([5]; 50 ng/ml IL-6): 220 nM | liver TIMP-1 gene expression level vs vehicle ([6]; P<0.001): reduction | liver VCAM-1 gene expression level vs vehicle ([6]; P<0.001): decreasing | liver Col1a2 expression level vs vehicle ([6]; P<0.01): reduction | serum ALT levels vs vehicle ([6]; P<0.01): decreased | effect on liver VCAM-1 levels, FXR dependence [7]: mediated by FXR | hepatic protective effect (serum ALT), FXR dependence [7]: mediated by FXR | reduction of liver Col1a2, FXR dependence [7]: mediated by FXR | reduction of liver TIMP-1, FXR dependence [7]: mediated by FXR | liver SAA-3 levels [8]: not significantly altered | liver SAP levels [8]: not significantly altered | liver VCAM-1 levels [8]: not significantly altered | Gallstone dissolution (gallstone incidence, mice with gallstones/mice) ([9]; vehicle 13/26): 5/20 | gallstone incidence in mice with preformed gallstones ([9]; vehicle 50%): 25%
